EP1994923A2, “Cosmetic and dermatological compositions for dry skin” (Henkel AG & Co. KGaA, priority 2007, dated 2008)

Tested on: Aquaporine (AQ3)
Assay: Influence on aquaporin synthesis in a skin model (indirect immunohistology)
Assay type: cell-based
Conditions: skin model as in WO 03/053394 A2; 10 mg/ml test solution (extracts: 10 mg dry substance per ml); added systemically to the medium every two days; frozen after 6 days; cryosections
Procedure: An einem Hautmodell, wie in WO 03/053394 A2 beschrieben, wurde der Einfluss folgender Substanzen auf die Aquaporinsynthese überprüft: • 1.) Ergothionein (10 mg/ml Testlösung) • 2.) Wässriger Extrakt aus Laminaria digitata (mit einem hohen Anteil an Laminarin; verwendet wurde das Handelsprodukt Phycojuvenine in einer solchen Menge, dass die Testlösung eine Konzentration von 10 mg Extrakt-Trockensubstanz pro ml aufwies) • 3.) Wässriges Proteinhydrolysat von Hefeproteinen (verwendet wurde das Handelsprodukt Biodynes TRF Powder von Arch Chemicals Inc. in einer von 10 mg Extrakt-Trockensubstanz pro ml Testlösung)
Die Hautmodelle wurden nach Ankunft in frisches Medium gesetzt. Nach Vorinkubation über Nacht wurden sie alle zwei Tage mit den Testsubstanzen behandelt, indem der Wirkstoff systemisch in das Medium gegeben wurde. Die Kulturen wurden nach 6 Tagen für Cryoschnitte bei -80 °C eingefroren. Zum Zeitpunkt 0 wurden Kontrollproben eingefroren.
Zum Nachweis von Aquaporinen (AQ3) wurde die indirekte Immunhistologie angewendet. Hierbei bindet ein unkonjungierter Primärantikörper an das Antigen. Anschließend wird ein Sekundärantikörper eingesetzt, der gegen den Primärantikörper gerichtet ist.

**Q.** For `C[N+](C)(C)[C@@H](Cc1cnc(S)[nH]1)C(=O)[O-]` [Ergothionein, 2-Mercapto-N^αN^αN^α-trimethyl-L-histidinium-Betain], which “Aquaporinsynthese (Induktion der Aquaporine (AQ3))” value is on record?
**A.** Its value is “stimulierten”.
